Molecules are shown by their SMILES.

A word on the EC50: it is the concentration needed to bring the measured effect to its halfway point. A lower EC50 goes with an effect from little substance. As usually defined, the Emax is the maximal effect, on the per cent scale that the assay sets.

For test [1], the target named is T1, human Cystic Fibrosis Transmembrane Conductance Regulator (CFTR) harboring the ΔF508 mutation (Homo sapiens, UniProt P13569, DEL508-508).
T1 construct: expressed in transfected cells; host or cells: H441 carcinoma line (G418-selected)
In words: H441 cell ΔF508-CFTR-HRP cell surface assay (Emax and EC50). The following applies: for Emax: NCI-H441, NA = Not active. Format: cell-based. The gist of the method:
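H441 and 41o- bronchial epithelial cells expressing ΔF508-CFTR with an extracellular-loop-4 HRP tag were treated with a 15-point compound series (24.5–0.001 μM) for two nights, H441 at 27° C, 41o- at 37° C with 0.0005 mg/ml doxycycline. Surface HRP luminescence read; % of maximum VX809 signal and EC50 derived.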

For test [2], the target named is T2, CFTR-mediated transepithelial chloride transport in primary human bronchial epithelial cells from a ΔF508 homozygous CF donor (Homo sapiens, UniProt P13569, DEL508-508).
T2 construct: Primary human bronchial epithelial cells from a ΔF508 homozygous CF donor; host or cells: primary CF-HBE cells, ΔF508 homozygous donor
In words: TECC24 recording of CFTR-mediated transepithelial chloride transport in CF-HBE cells (AUC fold over DMSO). Format: cell-based. Conditions: test agent 10 μM, 48 hours incubation, AUC of forskolin-stimulated IEQ relative to DMSO. The protocol:
Example 316: TECC24 AUC Fold Over DMSO @ 10 uM
The effects of a test agent on CFTR-mediated transepithelial chloride transport was measured using TECC24 recording analysis. Test agents were solubilized in DMSO. Solubilized test agents were mixed with incubation medium containing DMEM/F12, Ultroser G (2%; Crescent Chemical, catalog #67042), Hyclone Fetal Clone II (2%; GE Healthcare, catalog #SH30066.02), bovine brain extract (0.25%; Lonza, catalog #CC-4098), insulin (2.5 μg/mL), IL-13 (10 ng/mL), hydrocortisone (20 nM), transferrin (2.5 μg/mL), triiodothyronine (500 nM), ethanolamine (250 nM), epinephrine (1.5 μM), phosphoethanolamine (250 nM), and retinoic acid (10 nM). Primary human bronchial epithelial cells from a ΔF508 homozygous CF donor (CF-HBE cells; from University of North Carolina Cystic Fibrosis Tissue Procurement Center), grown on Transwell HTS 24-well cell culture inserts (Costar, catalog #3378), were exposed to test agents or controls dissolved in incubation medium. The CF-HBE cells were cultured at 36.5° C. for 48 hours before TECC24 recordings were performed in the presence or absence of test agent, a positive control or vehicle (DMSO).
Following incubation, the transwell cell culture inserts containing the test agent or control-treated CF-HBE cells were loaded onto a TECC24 apparatus (TECC v7 or MTECC v2; EP Design) to record the transepithelial voltage (VT) and resistance (TEER) using 4 AgCl electrodes per well configured in current-clamp mode. The apical and basolateral bath solutions both contained (in mM) 140 NaCl, 5 KCl, 2 CaCl2), 1 MgCl2, 10 Hepes, and 10 glucose (adjusted to pH 7.4 with NaOH). To inhibit basal Na+ absorption, the ENaC inhibitor benzamil (10 μM) was added to the bath. Then, the adenylate cyclase activator, forskolin (10 μM), was added to the bath to activate CFTR. The forskolin-stimulated Cl-transport was halted by addition of CFTR inhibitor-172 (20 μM) to the bath at the end of the experiment to confirm specificity. VT and TEER recordings were digitally acquired at routine intervals using TECC or MTECC software (EP Design). VT and TEER were transformed into equivalent transepithelial Cl-current (IEQ), and the Area Under the Curve (AUC) of the IEQ time course between forskolin and CFTR inhibitor-172 addition was generated using Excel (Microsoft). Efficacy is expressed as the ratio of the test agent AUC divided by vehicle AUC. EC50s based on AUC are generated using the non-linear regression log(agonist) vs. response function in Prism software (GraphPad) with Hill Slope fixed=1.
If a test agent increased the AUC of the forskolin-stimulated IEQ relative to vehicle in CF-HBE cells, and this increase was inhibited by CFTR inhibitor-172, then the test agent was considered a CFTR corrector.

T1 sequence (P13569 with tags, fused parts or gaps DEL508-508): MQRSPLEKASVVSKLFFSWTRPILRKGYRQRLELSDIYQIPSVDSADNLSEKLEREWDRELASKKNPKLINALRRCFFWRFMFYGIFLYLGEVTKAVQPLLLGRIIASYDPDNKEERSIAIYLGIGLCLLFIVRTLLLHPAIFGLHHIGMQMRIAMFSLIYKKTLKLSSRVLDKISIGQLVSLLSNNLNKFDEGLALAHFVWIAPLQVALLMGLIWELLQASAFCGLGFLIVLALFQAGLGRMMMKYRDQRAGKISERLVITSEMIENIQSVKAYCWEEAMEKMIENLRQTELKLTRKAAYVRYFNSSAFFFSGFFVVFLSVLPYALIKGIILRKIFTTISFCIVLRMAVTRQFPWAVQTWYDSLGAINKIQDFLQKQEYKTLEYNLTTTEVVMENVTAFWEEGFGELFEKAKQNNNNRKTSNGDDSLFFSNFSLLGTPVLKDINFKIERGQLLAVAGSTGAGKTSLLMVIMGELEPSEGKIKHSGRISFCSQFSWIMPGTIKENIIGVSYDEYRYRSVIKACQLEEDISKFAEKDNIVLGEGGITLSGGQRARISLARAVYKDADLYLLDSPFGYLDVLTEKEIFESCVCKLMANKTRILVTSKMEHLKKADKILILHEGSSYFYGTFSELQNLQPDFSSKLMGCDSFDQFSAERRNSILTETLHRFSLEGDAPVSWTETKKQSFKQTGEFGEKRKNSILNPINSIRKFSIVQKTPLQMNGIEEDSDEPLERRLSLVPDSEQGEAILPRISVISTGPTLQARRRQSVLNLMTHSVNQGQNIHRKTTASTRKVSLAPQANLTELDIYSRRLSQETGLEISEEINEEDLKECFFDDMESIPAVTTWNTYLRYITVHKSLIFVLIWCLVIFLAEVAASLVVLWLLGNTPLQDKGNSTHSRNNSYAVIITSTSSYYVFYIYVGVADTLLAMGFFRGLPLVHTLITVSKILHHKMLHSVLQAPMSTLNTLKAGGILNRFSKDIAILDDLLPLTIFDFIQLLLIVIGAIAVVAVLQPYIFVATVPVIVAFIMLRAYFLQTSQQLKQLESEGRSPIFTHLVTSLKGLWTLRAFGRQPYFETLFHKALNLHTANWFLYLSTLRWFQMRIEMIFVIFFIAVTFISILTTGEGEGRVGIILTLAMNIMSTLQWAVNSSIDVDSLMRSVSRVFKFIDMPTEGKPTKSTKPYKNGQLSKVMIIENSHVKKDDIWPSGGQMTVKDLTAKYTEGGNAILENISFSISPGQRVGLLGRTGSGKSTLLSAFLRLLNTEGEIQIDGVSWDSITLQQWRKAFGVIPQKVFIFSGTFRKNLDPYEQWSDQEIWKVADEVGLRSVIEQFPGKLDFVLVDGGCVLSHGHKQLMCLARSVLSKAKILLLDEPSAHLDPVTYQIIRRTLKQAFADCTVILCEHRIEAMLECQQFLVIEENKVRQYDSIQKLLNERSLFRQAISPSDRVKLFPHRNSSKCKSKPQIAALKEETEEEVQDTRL
T2 sequence (P13569 with tags, fused parts or gaps DEL508-508): as above

Consider `Cc1ccc2ccc(C(=O)N[C@H](C(=O)O)C(C)(C)C)c(OCc3ccc(C(F)(F)F)cc3)c2c1` [Example 279, (2S)-3,3-dimethyl-2-[[7-methyl-1-[[4-(trifluoromethyl)phenyl]methoxy]naphthalene-2-carbonyl]amino]butanoic Acid], for which, in test [1], a half-maximal effect (EC50) was put at 100 nM and the Emax worked out at 348%. The “TECC24 AUC fold over DMSO @10 μM” value in test [2] is “A (“A” refers to AUC @10 uM >6)”.

On to `CC(C)(SC1CCCC1)[C@H](NC(=O)c1ccc2ccccc2c1OCc1ccc(SC(F)(F)F)cc1)C(=O)O` [Example 169, (R)-3-(cyclopentylthio)-3-methyl-2-(1-((4-((trifluoromethyl)thio)benzyl)oxy)-2-naphthamido)butanoic Acid], for which, in test [1], a half-maximal response (EC50) required 400 nM and the Emax stood at 138%. Besides, the “TECC24 AUC fold over DMSO @10 μM” value in test [2] is on record as “B (“B” refers to AUC @10 uM between 4-6)”.

As for `CC(C)(C)[C@H](NC(=O)c1ccc2ccccc2c1OCC1CC2CCC1C2)C(=O)O` (stereo partly drawn) [Example 41, (2S)-2-(1-(bicyclo[2.2.1]heptan-2-ylmethoxy)-2-naphthamido)-3,3-dimethylbutanoic Acid], in test [1], the EC50 came to 3700 nM and the Emax came to 112%. For the same compound, the “TECC24 AUC fold over DMSO @10 μM” value in test [2] was “C (“C” refers to AUC @10 uM <4)”.

In test [1], `O=C(N[C@H](C(=O)O)C12CCC(CC1)C2)c1ccc2ccccc2c1OCc1ccc(OC(F)(F)F)cc1` [Example 14, (S)-2-((1r,4S)-bicyclo[2.2.1]heptan-1-yl)-2-(1-((4-(trifluoromethoxy)benzyl)oxy)-2-naphthamido)acetic Acid] had an EC50 of 100 nM and an Emax of 103%. In addition, the “TECC24 AUC fold over DMSO @10 μM” value in test [2] is “B (“B” refers to AUC @10 uM between 4-6)”.

In test [1], `O=C(N[C@H](C(=O)O)C(c1ccccc1)c1ccccc1)c1ccc2ccccc2c1OCc1nc2ccccc2s1` [Example 212, (S)-2-(1-(benzo[d]thiazol-2-ylmethoxy)-2-naphthamido)-3,3-diphenylpropanoic Acid] came in with an EC50 of 1200 nM and a maximal response (Emax) of 141%. In test [2], the “TECC24 AUC fold over DMSO @10 μM” value is given as “C (“C” refers to AUC @10 uM <4)”.

Take `COC(C)(C)[C@H](NC(=O)c1ccc2ccccc2c1OCc1ccc(C(F)(F)F)cc1)C(=O)O` [Example 139, (S)-3-methoxy-3-methyl-2-(1-((4-(trifluoromethyl)benzyl)oxy)-2-naphthamido)butanoic Acid]: in test [1], the EC50 was 1400 nM and the Emax amounted to 118%. For the same compound, the “TECC24 AUC fold over DMSO @10 μM” value in test [2] is “C (“C” refers to AUC @10 uM <4)”.

In test [1], `CCC(C)(C)[C@H](NC(=O)c1ccc2ccc(C)cc2c1OCCCC(C)(C)C)C(=O)O` [Example 257, (2S)-2-[[1-(4,4-dimethylpentoxy)-7-methyl-naphthalene-2-carbonyl]amino]-3,3-dimethyl-pentanoic Acid] came in with an EC50 of 600 nM and an Emax of 369%. Also, the “TECC24 AUC fold over DMSO @10 μM” value in test [2] is reported as “A (“A” refers to AUC @10 uM >6)”.

For `CC(C)(C)[C@@H](NC(=O)c1ccc2ccc(C(F)(F)F)cc2c1OCc1ccc(C(F)(F)F)cc1)C(=O)O` [Example 307, (R)-3,3-dimethyl-2-(7-(trifluoromethyl)-1-((4-(trifluoromethyl)benzyl)oxy)-2-naphthamido)butanoic Acid], in test [1], the 50% effective concentration (EC50) was 600 nM and the maximum response (Emax) amounted to 81.1%. Also, the “TECC24 AUC fold over DMSO @10 μM” value in test [2] was “C (“C” refers to AUC @10 uM <4)”.

In the case of `CCC(C)(C)[C@H](NC(=O)c1ccc2cc(F)ccc2c1OCc1ccc(SC(F)(F)F)cc1)C(=O)O` [Example 84, (S)-2-(6-fluoro-1-((4-((trifluoromethyl)thio)benzyl)oxy)-2-naphthamido)-3,3-dimethylpentanoic Acid], in test [1], a half-maximal response (EC50) required 500 nM and the Emax is 80.5%. Further, the “TECC24 AUC fold over DMSO @10 μM” value in test [2] is “B (“B” refers to AUC @10 uM between 4-6)”.

In test [1], `CC(C)(C)[C@@H](NC(=O)c1ccc2ccc(C(F)F)cc2c1OCc1ccc(C(F)(F)F)cc1)C(=O)O` [Example 265, (2R)-2-[[7-(difluoromethyl)-1-[[4-(trifluoromethyl)phenyl]methoxy]naphthalene-2-carbonyl]amino]-3,3-dimethyl-butanoic Acid] displayed an EC50 of 600 nM and an Emax of 96.2%. In test [2], the “TECC24 AUC fold over DMSO @10 μM” value is listed as “C (“C” refers to AUC @10 uM <4)”.

In test [1], `CC(C)(C)C[C@H](NC(=O)c1ccc2ccccc2c1OCc1ccc(S(F)(F)(F)(F)F)cc1)C(=O)O` [Example 110, (S)-4,4-dimethyl-2-(1-((4-(pentafluoro-16-sulfanyl)benzyl)oxy)-2-naphthamido)pentanoic Acid] gave a concentration for a half-maximal effect (EC50) of 2100 nM and a maximum response (Emax) of 83.1%. In addition, the “TECC24 AUC fold over DMSO @10 μM” value in test [2] is “B (“B” refers to AUC @10 uM between 4-6)”.

On to `CC(C)(SCC1CC1(F)F)[C@H](NC(=O)c1ccc2ccccc2c1OCc1ccc(SC(F)(F)F)cc1)C(=O)O` (stereo partly drawn) [Example 164, (2R)-3-(((2,2-difluorocyclopropyl)methyl)thio)-3-methyl-2-(1-((4-((trifluoromethyl)thio)benzyl)oxy)-2-naphthamido)butanoic Acid], for which, in test [1], the EC50 amounted to 600 nM and the Emax was 112%. In addition, the “TECC24 AUC fold over DMSO @10 μM” value in test [2] is “C (“C” refers to AUC @10 uM <4)”.

Turning to `CC(C)(c1ccccc1)[C@H](NC(=O)c1ccc2cc(F)ccc2c1OCc1ccc(SC(F)(F)F)cc1)C(=O)O` [Example 10, (S)-2-(6-fluoro-1-((4-((trifluoromethyl)thio)benzyl)oxy)-2-naphthamido)-3-methyl-3-phenylbutanoic Acid], in test [2], the “TECC24 AUC fold over DMSO @10 μM” value is listed as “C (“C” refers to AUC @10 uM <4)”.

`CC(C)(C)C[C@H](NC(=O)c1ccc2cc(F)ccc2c1OCc1ccc(Cl)c(Cl)c1)C(=O)O` [Example 211, (S)-2-(1-((3,4-dichlorobenzyl)oxy)-6-fluoro-2-naphthamido)-4,4-dimethylpentanoic Acid]: in test [2], the “TECC24 AUC fold over DMSO @10 μM” value is “C (“C” refers to AUC @10 uM <4)”.

Regarding `O=C(N[C@@H](Cc1ccccc1)C(=O)O)c1ccc2ccccc2c1OCc1ccc(F)cc1` [Example 94], the “TECC24 AUC fold over DMSO @10 μM” value in test [2] was “C (“C” refers to AUC @10 uM <4)”.

`CCC(C)(C)[C@@H](NC(=O)c1ccc2ccc(C)cc2c1OCc1ccc(C(F)(F)F)cc1)C(=O)O` [Example 305, (R)-3,3-dimethyl-2-(7-methyl-1-((4-(trifluoromethyl)benzyl)oxy)-2-naphthamido)pentanoic Acid]: the “TECC24 AUC fold over DMSO @10 μM” value in test [2] is “A (“A” refers to AUC @10 uM >6)”.

Consider `CC(OCc1ccccc1)[C@H](NC(=O)c1ccc2ccccc2c1OCc1ccc(OC(F)(F)F)cc1)C(=O)O` (stereo in doubt) [Example 188, O-benzyl-N-(1-((4-(trifluoromethoxy)benzyl)oxy)-2-naphthoyl)-L-allothreonine], for which the “TECC24 AUC fold over DMSO @10 μM” value in test [2] is given as “C (“C” refers to AUC @10 uM <4)”.

For `CC(C)(C)c1ccc(COc2c(C(=O)N[C@@H](Cc3ccccc3)C(=O)O)ccc3ccccc23)cc1` [Example 96, (1-((4-(tert-butyl)benzyl)oxy)-2-naphthoyl)-L-phenylalanine], in test [2], the “TECC24 AUC fold over DMSO @10 μM” value is on record as “C (“C” refers to AUC @10 uM <4)”.

On to `O=C(N[C@@H](Cc1ccc(C(F)(F)F)cc1)C(=O)O)c1ccc2cc(F)ccc2c1OCc1ccc(OC(F)(F)F)cc1` [Example 194, (S)-2-(6-fluoro-1-((4-(trifluoromethoxy)benzyl)oxy)-2-naphthamido)-3-(4-(trifluoromethyl)phenyl)propanoic Acid], for which the “TECC24 AUC fold over DMSO @10 μM” value in test [2] is “C (“C” refers to AUC @10 uM <4)”.

The values are drawn from patent US12630498B2 (Genzyme Corporation, priority 2019, dated 2026).
